Columns and labels:
[1] = tested on: HMC-1.2 cell line (imatinib-resistant cell line, having c-kit G560V/D816V mutation); test: Growth inhibition of mastocytosis cell line HMC-1.2; assay type: cell-based; details: HMC-1.2, 72 hours
Method: [Worded in the source for another cell line; this cell line is reported under the same test.] Specifically, 100 μl of a Ba/F3 cell line with a c-kit D816V mutation (FIG. 1) was added to each well of a 96-well plate at a concentration of 10,000 cells/100 μl. […] As the control compounds, imatinib and sunitinib which are c-kit inhibitors were used.

[2] = tested on: neoplastic mast cells exhibiting wild type (wt) KIT or the rarely occurring F522C-mutated variant of KIT; details: literature, background; cited from earlier work
[3] = tested on: inflammatory response caused by mastocytosis (HMC-1.2 mouse model); test: Spleen/body weight ratio in mastocytosis mouse model (inflammatory response); assay type: in vivo, NOD SCID female mice
Method: (§1) As mice, 6-8-week-old NOD SCID female mice (18 to 22 g) (GemPharmatech Co., Ltd.) were prepared. Mice were acclimatized for 7 days before use in the experiment, and mice with abnormal health were excluded from the experiment. Mice were bred in a cage (300×180×150 mm) at a 22±3° C. and a relative humidity of 40% to 70% with a 12-hr light/12-hr dark cycle. Mice were allowed access to sterilized dry granular food (Beijing Keaoxieli Feed Co., Ltd., Beijing, China) and water ad libitum for the entire experimental period except for the period specified in the protocol.
50 ml of HMC-1.2 cells suspension-cultured in a 75T flask were placed in a conical tube and centrifuged at 1,200 rpm for 2 minutes, centrifuged with DPBS (Dulbecco's Phosphate-Buffered Saline, Welgene) at 1,200 rpm for 2 minutes, washed, and then suspended in RPMI1640 (Welgene) without antibiotics and fetal bovine serum (FBS). Then, the cells were stained with trypan blue, counted with a hemocytometer, and then HMC-1.2 cells (1×10^6) in a mixture of 0.1 ml L-15 and Matrigel (BD, cat. No. 356234) (1:1) were subcutaneously injected into the right flanks of mice anesthetized by intraperitoneal administration of Avertin (250 mg/kg), thus inducing tumors.
Thereafter, when the average tumor volume reached 150 to 200 mm^3, 4 mice were assigned to each group so that the average tumor volume at each group and treatment time was the same between the groups. Then, each of imatinib at a dose of 90 mg/kg, sunitinib at doses of 20 and 40 mg/kg, and PHI-101 at doses of 7, 20, 40 and 80 mg/kg was administered orally to the mice once daily for 3 weeks. For oral administration, each compound was dissolved in 5% 1-methyl-2-pyrrolidone and then completely mixed in 15% Kolliphor, 30% PEG E400 HS15 and 50% 0.05M citric acid.
Specifically, 3 weeks after administering each drug to the mastocytosis mouse model of Example 3-1, the mice were sacrificed, the body weight and spleen weight were measured using a digital scale, and then the spleen/body weight ratio was calculated.

[4] = tested on: HMC-1.2 cells subcutaneous tumor; test: Tumor growth inhibition in mastocytosis mouse model with HMC-1.2 cell line; assay type: in vivo, NOD SCID female mice
Method: as §1
50 ml of HMC-1.2 cells suspension-cultured in a 75T flask were placed in a conical tube and centrifuged at 1,200 rpm for 2 minutes, centrifuged with DPBS (Dulbecco's Phosphate-Buffered Saline, Welgene) at 1,200 rpm for 2 minutes, washed, and then suspended in RPMI1640 (Welgene) without antibiotics and fetal bovine serum (FBS).
Thereafter, when the average tumor volume reached 150 to 200 mm^3, 4 mice were assigned to each group so that the average tumor volume at each group and treatment time was the same between the groups.
In addition, the width and length of the tumor were measured using a caliper at 3-day intervals, and the tumor volume was calculated using the following equation.
(V: tumor volume, W: tumor width, and L: tumor length)
In addition, the mice were sacrificed 3 weeks after the start of oral administration of each drug and the tumor weight was measured using a digital scale. For each data, one-way ANOVA was used to test the significance of each group.

[5] = tested on: neoplastic mast cells with the c-KIT mutation D816V; details: literature, background; cited from earlier work
[6] = 90 mg/kg oral once daily for 3 weeks
[7] = 20 mg/kg oral once daily for 3 weeks
[8] = 40 mg/kg oral once daily for 3 weeks

Cc1nc(Nc2ncc(C(=O)Nc3c(C)cccc3Cl)s2)cc(N2CCN(CCO)CC2)n1 [Dasatinib]
GI50 [1]: 312 nM

Cc1ccc(NC(=O)c2ccc(CN3CCN(C)CC3)cc2)cc1Nc1nccc(-c2cccnc2)n1 [Imatinib, reference compound]
GI50 [1]: 17100 nM | growth of neoplastic mast cells with wt KIT or F522C KIT [2]: counteract the growth | Spleen/body weight ratio % of control [3, 6]: 97.7% | Spleen/body weight ratio Inhibition (%) [3, 6]: 2.3% | Tumor growth inhibition (TGI) (%) Tumor weight [4, 6]: 7.8% | growth of neoplastic mast cells with c-KIT D816V [5]: failed to inhibit the growth

Cc1ccc(C(=O)Nc2ccc(CN3CCN(C)CC3)c(C(F)(F)F)c2)cc1C#Cc1cnc2cccnn12 [Ponatinib]
GI50 [1]: 194 nM

CCN(CC)CCNC(=O)c1c(C)[nH]c(/C=C2\C(=O)Nc3ccc(F)cc32)c1C [Sunitinib, reference compound]
GI50 [1]: 1300 nM | Spleen/body weight ratio % of control [3, 7]: 104.3% | Spleen/body weight ratio Inhibition (%) [3, 7]: −4.3% | Spleen/body weight ratio % of control [3, 8]: 102.7% | Spleen/body weight ratio Inhibition (%) [3, 8]: −2.7% | Tumor growth inhibition (TGI) (%) Timor volume [4, 7]: 37.3% | Tumor growth inhibition (TGI) (%) Tumor weight [4, 7]: 49.5% | Tumor growth inhibition (TGI) (%) Timor volume [4, 8]: 46.2% | Tumor growth inhibition (TGI) (%) Tumor weight [4, 8]: 47.9%

From US20230263792A1, “USE OF 2,3,5-SUBSTITUTED THIOPHENE COMPOUND FOR PREVENTING, ALLEVIATION, OR TREATING MASTOCYTOSIS” (PHAROS IBIO CO., LTD, priority 2020, published 2023)
